IC50 data for 17 molecules are collected here from ChEMBL document CHEMBL1144342, “Synthesis and structure-activity relationship of 4-substituted 2-(2-acetyloxyethyl)-8-(morpholine-4-sulfonyl)pyrrolo[3,4-c]quinoline-1,3-diones as potent caspase-3 inhibitors” (J Med Chem, 2005).

The target in this assay is T1, Caspase-3 (Homo sapiens, UniProt P42574).
T1 sequence (P42574 whole entry): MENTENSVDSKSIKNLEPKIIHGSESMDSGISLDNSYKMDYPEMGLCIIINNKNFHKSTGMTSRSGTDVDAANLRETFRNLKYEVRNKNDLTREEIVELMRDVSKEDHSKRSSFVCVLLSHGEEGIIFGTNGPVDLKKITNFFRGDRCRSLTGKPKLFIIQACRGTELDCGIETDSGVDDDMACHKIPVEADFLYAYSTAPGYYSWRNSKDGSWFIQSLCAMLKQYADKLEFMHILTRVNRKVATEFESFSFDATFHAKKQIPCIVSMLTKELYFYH
Kind of assay: In vitro inhibitory concentration against human caspase-3.

Molecule `CC(=O)OCCN1C(=O)c2c(SC(=N)N)nc3ccc(S(=O)(=O)N4CCOCC4)cc3c2C1=O` came in with an IC50 of 255 nM. That is a sub-micromolar value.

As to `CC(=O)OCCN1C(=O)c2c(Cl)nc3ccc(S(=O)(=O)N4CCOCC4)cc3c2C1=O`, it took 294 nM to reach half-maximal inhibition (IC50).

For the molecule `CC(=O)OCCN1C(=O)c2c(/C=C/c3ccc(C(F)(F)F)cc3)nc3ccc(S(=O)(=O)N4CCOCC4)cc3c2C1=O`, the IC50 is 33 nM. This IC50 lies about 8.9-fold lower than the previous one.

Take `CC(=O)OCCN1C(=O)c2c(-c3ccc(C(=O)N(C)C)cc3)nc3ccc(S(=O)(=O)N4CCOCC4)cc3c2C1=O`: half-maximal inhibition (IC50) required 58 nM.

`CC(=O)OCCN1C(=O)c2c(-c3ccc(F)c(Cl)c3)nc3ccc(S(=O)(=O)N4CCOCC4)cc3c2C1=O` showed an IC50 of 33 nM.

Turning to `CC(=O)OCCN1C(=O)c2c(C(C)C)nc3ccc(S(=O)(=O)N4CCOCC4)cc3c2C1=O`, the IC50 came out at 40 nM.

`COC(=O)CS(=O)(=O)c1nc2ccc(S(=O)(=O)N3CCOCC3)cc2c2c1C(=O)N(CCOC(C)=O)C2=O` displayed an IC50 of 362 nM.

Turning to `CC(=O)OCCN1C(=O)c2c(C)nc3ccc(S(=O)(=O)N4CCOCC4)cc3c2C1=O`, half-maximal inhibition (IC50) was put at 23 nM.

With `CC(=O)OCCN1C(=O)c2c(-c3cccnc3)nc3ccc(S(=O)(=O)N4CCOCC4)cc3c2C1=O`, the midpoint of inhibition, the IC50, lay at 33 nM.

Consider `CC(=O)OCCN1C(=O)c2c(c3cc(S(=O)(=O)N4CCOCC4)ccc3[nH]c2=O)C1=O`, for which the IC50 stood at 10900 nM.

As to `CC(=O)OCCN1C(=O)c2c(-c3ccccc3)nc3ccc(S(=O)(=O)N4CCOCC4)cc3c2C1=O`, half-maximal inhibition (IC50) was put at 27 nM.

`CC(=O)OCCN1C(=O)c2c(Nc3ccc(F)c(Cl)c3)nc3ccc(S(=O)(=O)N4CCOCC4)cc3c2C1=O` had an IC50 of 27900 nM.

`CCOC(=O)C[C@@H](Nc1nc2ccc(S(=O)(=O)N3CCOCC3)cc2c2c1C(=O)N(CCOC(C)=O)C2=O)C(=O)OCC` registered an IC50 of 5190 nM. Compared with the last molecule, the IC50 is about 5.4-fold lower.

With `CC(=O)OCCN1C(=O)c2c(-c3ccco3)nc3ccc(S(=O)(=O)N4CCOCC4)cc3c2C1=O`, the IC50 amounted to 36 nM.

In the case of `COC(=O)C[S+]([O-])c1nc2ccc(S(=O)(=O)N3CCOCC3)cc2c2c1C(=O)N(CCOC(C)=O)C2=O` (configuration not stated), it took 352 nM to reach half-maximal inhibition (IC50).

Consider `CC(=O)OCCN1C(=O)c2c(N3CCOCC3)nc3ccc(S(=O)(=O)N4CCOCC4)cc3c2C1=O`, for which the IC50 is 15400 nM.

On to `COC(=O)CSc1nc2ccc(S(=O)(=O)N3CCOCC3)cc2c2c1C(=O)N(CCOC(C)=O)C2=O`, for which the IC50 was 1290 nM.
